Assays:
[1] = Selectivity index, ratio of CC50 for green monkey Vero-B cells to EC50 for Dengue virus infected in green monkey Vero-B cells; format: toxicity, cell-based; conditions: read-out: Ratio CC50/EC50
[2] = Selectivity index, ratio of CC50 for green monkey Vero-B cells to EC50 for Yellow fever virus infected in green monkey Vero-B cells; format: toxicity, cell-based; conditions: read-out: Ratio CC50/EC50

SMILES	selectivity ratio [1]	selectivity ratio [2]
O=C(NCc1ccc(-c2cccnc2)cc1)c1nc[nH]c1C(=O)Nc1ccc(F)cc1	2.85	10
Cc1ccc(NC(=O)c2nccnc2C(=O)Nc2ccc(C)cc2-c2cccnc2)cc1	4.5	4.1
Cc1ccc(NC(=O)c2nccnc2C(=O)NCc2ccc(-c3cccnc3)cc2)cc1	17.2	1.7
Cc1ccc(NC(=O)c2nccnc2C(=O)Nc2ccccc2-c2ccncc2)cc1	26	10
Cc1ccc(NC(=O)c2nccnc2C(=O)Nc2ccc(F)cc2)c(-c2cccnc2)c1	> 125	9
O=C(NCc1ccc(-c2ccncc2)cc1)c1nc[nH]c1C(=O)Nc1ccc(F)cc1	1	1
O=C(NCc1ccc(-c2ccncc2)cc1)c1nccnc1C(=O)Nc1ccc(F)cc1	> 125	16
Cc1ccc(NC(=O)c2nc[nH]c2C(=O)Nc2ccccc2)c(-c2ccsc2)c1	1	13
Cc1ccc(NC(=O)c2nc[nH]c2C(=O)Nc2ccc(F)cc2)c(-c2ccsc2)c1	2.4	1
Cc1ccc(NC(=O)c2nccnc2C(=O)NCc2ccccc2-c2ccncc2)cc1	2.04	1.7
Cc1ccc(NC(=O)c2[nH]cnc2C(=O)Nc2ccc(C)cc2-c2ccco2)cc1	36.2	–
O=C(NCc1ccc(-c2cccnc2)cc1)c1nccnc1C(=O)Nc1ccc(F)cc1	38.5	13
Cc1ccc(NC(=O)c2nc[nH]c2C(=O)Nc2ccc(F)cc2)c(-c2cc(C)n[nH]2)c1	48	34.5
Cc1ccc(NC(=O)c2nccnc2C(=O)NCc2ccc(-c3ccncc3)cc2)cc1	4.5	3
Cc1ccc(NC(=O)c2nc[nH]c2C(=O)NCc2ccccc2)c(-c2ccco2)c1	1	–
O=C(NCc1ccccc1-c1ccncc1)c1nc[nH]c1C(=O)Nc1ccc(F)cc1	26	31
Cc1ccc(NC(=O)c2nccnc2C(=O)Nc2ccc(C)cc2-c2ccncc2)cc1	10	3.8
Cc1cnc(NC(=O)c2[nH]cnc2C(=O)Nc2ccccc2)c(-c2ccc(C)s2)c1	0.22	0.97
O=C(NCc1ccc(-c2ccsc2)cc1)c1nc[nH]c1C(=O)Nc1ccc(F)cc1	0.6	4.13
O=C(NCc1ccccc1-c1ccncc1)c1nccnc1C(=O)Nc1ccc(F)cc1	2.9	–
Cc1ccc(NC(=O)c2[nH]cnc2C(=O)Nc2ccc(C)cc2-c2ccsc2)cc1	24.5	1
Cc1ccc(NC(=O)c2nccnc2C(=O)Nc2ccccc2-c2cccnc2)cc1	8.8	1
Cc1ccc(NC(=O)c2nc[nH]c2C(=O)NCCc2ccc(F)cc2)c(-c2ccco2)c1	30.9	–
O=C(Nc1ccc(F)cc1)c1nccnc1C(=O)Nc1ccccc1-c1cccnc1	5.2	2.5
O=C(Nc1ccc(F)cc1)c1nccnc1C(=O)Nc1ccccc1-c1ccncc1	10.4	15
O=C(NCc1ccccc1-c1ccsc1)c1nc[nH]c1C(=O)Nc1ccc(F)cc1	1.95	13.2
Cc1ccc(NC(=O)c2nccnc2C(=O)Nc2ccc(F)cc2)c(-c2ccncc2)c1	1	2.6
Cc1cc(-c2ccccc2NC(=O)c2nc[nH]c2C(=O)Nc2ccc(F)cc2)[nH]n1	3.6	67
Cc1ccc(NC(=O)c2nc[nH]c2C(=O)Nc2ccc(F)cc2)c(-c2ccco2)c1	1	–

From ChEMBL document CHEMBL3352473, “Synthesis and evaluation of imidazole-4,5- and pyrazine-2,3-dicarboxamides targeting dengue and yellow fever virus” (Eur J Med Chem, 2014)
